Columns and labels:
[1] = system: S. pneumoniae D39V; test: fitness (endpoint OD595 vs no drug) (fraction); higher = more growth
Outline: (§1)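 Fitness is computed from the optical density at which cultures reach stationary phase, divided by the robust mean of no-drug control wells. Any value above 1 is set to 1. Cultures started at OD595 0.01 in 384-well plates with TSB, LB Lennox or CY at 37 °C, and OD595 was read every 30 min for 14 h against a first-reading background.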

[2] = system: S. aureus DSM 20231; test: as above
Outline: as §1
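Further: OD595 on entry to stationary phase over no-drug wells; at most 1.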

CC(=O)Oc1ccccc1C(=O)O [Acetylsalicylic acid] + CO/N=C(\C(=O)N[C@@H]1C(=O)N2C(C(=O)[O-])=C(C[N+]3(C)CCCC3)CS[C@H]12)c1csc(N)n1 [Cefepime]
fitness
Conditions | first compound 250 µg/mL | first compound 500 µg/mL | first compound 1000 µg/mL
[1], partner 0.007 µg/mL | 0.988 | ≥ 1 | 0.927
[1], partner 0.0078 µg/mL | 0.992 | ≥ 1 | 0.915
[1], partner 0.014 µg/mL | 0.99 | 0.995 | 0.969
[1], partner 0.0155 µg/mL | ≥ 1 | ≥ 1 | 0.898
[1], partner 0.028 µg/mL | 0.927 | 0.896 | 0.865
[1], partner 0.031 µg/mL | 0.964 | ≥ 1 | 0.888
[2], partner 0.125 µg/mL | 0.856 | 0.712 | 0.624
[2], partner 0.25 µg/mL | 0.83 | 0.683 | –
[2], partner 0.5 µg/mL | 0.78 | 0.666 | 0.612

CC(=O)Oc1ccccc1C(=O)O [Acetylsalicylic acid] + CO[C@@]12[C@H](COC(N)=O)C3=C(C(=O)C(C)=C(N)C3=O)N1C[C@@H]1N[C@@H]12 [Mitomycin C]
fitness
Conditions | first compound 250 µg/mL | first compound 500 µg/mL | first compound 1000 µg/mL
[1], partner 0.001075 µg/mL | ≥ 1 | ≥ 1 | ≥ 1
[1], partner 0.002 µg/mL | 0.703 | 0.673 | 0.416
[1], partner 0.00215 µg/mL | 0.888 | 0.904 | 0.868
[1], partner 0.004 µg/mL | 0.733 | 0.657 | 0.426
[1], partner 0.0043 µg/mL | 0.8 | 0.811 | 0.774
[1], partner 0.008 µg/mL | 0.548 | 0.454 | 0.335
[2], partner 0.0156 µg/mL | 0.731 | 0.612 | 0.446
[2], partner 0.0312 µg/mL | 0.674 | 0.579 | –
[2], partner 0.0625 µg/mL | 0.559 | 0.483 | –

CC(=O)Oc1ccccc1C(=O)O [Acetylsalicylic acid] + COc1c(N2C[C@@H]3CCCN[C@@H]3C2)c(F)cc2c(=O)c(C(=O)O)cn(C3CC3)c12 [Moxifloxacin]
fitness
Conditions | first compound 250 µg/mL | first compound 500 µg/mL | first compound 1000 µg/mL
[1], partner 0.005 µg/mL | 0.975 | 0.96 | –
[1], partner 0.01 µg/mL | 0.98 | 0.987 | 0.812
[1], partner 0.02 µg/mL | 0.932 | 0.94 | 0.829
[1], partner 0.0312 µg/mL | 0.188 | 0.192 | 0.216
[1], partner 0.0625 µg/mL | 0.17 | 0.142 | 0.137
[1], partner 0.125 µg/mL | 0.0443 | 0.0397 | 0.0308
[2], partner 0.0075 µg/mL | 0.799 | 0.703 | 0.577
[2], partner 0.015 µg/mL | 0.7 | 0.656 | 0.58
[2], partner 0.03 µg/mL | 0.649 | 0.623 | 0.578

fitness, [2], one replicate
Conditions | first compound 250 µg/mL | first compound 500 µg/mL | first compound 1000 µg/mL
partner 0.06 µg/mL | 0.647 | 0.627 | 0.584
partner 0.12 µg/mL | 0.532 | 0.536 | 0.529
